Structures are written as SMILES. Bounds are passed on as bounds.

The target in one test is T1, Chk1 (Homo sapiens, UniProt O14757).
T1 construct: purchased Upstate Biotechnology
T1 sequence (O14757 1-476): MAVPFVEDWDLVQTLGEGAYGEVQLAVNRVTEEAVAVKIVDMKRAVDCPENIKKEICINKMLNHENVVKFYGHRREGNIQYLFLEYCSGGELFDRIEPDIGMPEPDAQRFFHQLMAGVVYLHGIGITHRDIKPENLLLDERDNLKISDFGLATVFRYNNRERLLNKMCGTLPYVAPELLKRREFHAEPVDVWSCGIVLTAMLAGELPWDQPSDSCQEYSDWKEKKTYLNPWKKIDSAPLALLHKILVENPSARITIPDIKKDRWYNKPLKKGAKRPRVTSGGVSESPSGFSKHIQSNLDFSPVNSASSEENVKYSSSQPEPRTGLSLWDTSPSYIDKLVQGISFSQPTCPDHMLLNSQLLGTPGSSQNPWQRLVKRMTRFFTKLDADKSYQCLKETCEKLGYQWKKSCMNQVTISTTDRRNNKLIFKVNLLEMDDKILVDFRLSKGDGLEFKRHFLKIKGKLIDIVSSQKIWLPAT
Description: Chk1 kinase assay: incorporation of γ-33P ATP into immobilized myelin basic protein. Type of test: biochemical. To be noted: Table 11, Chk1 only; class symbols A-D; read-out: Chk1 IC50. The essentials: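 Enzyme activity is measured as γ-33P transfer from ATP onto immobilized MBP over 1 h at room temperature, with Chk1 at 10 nM/10 μM unlabeled ATP and Chk2 at 20 nM/30 μM unlabeled ATP. Compounds are tested in 1% DMSO.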
As usually defined, the IC50 is the concentration that gives 50% inhibition. In the case of `NCc1cccc(-c2cnc(N)c(C(=O)N[C@H]3CCCNC3)n2)c1` [Example 839, 3-amino-6-[3-(aminomethyl)phenyl]-N-[(3S)-piperidin-3-yl]pyrazine-2-carboxamide], the 50% inhibitory concentration (IC50) was under 50 nM.

For the molecule `Cc1ccc(F)cc1CNC(=O)c1cccc(-c2cnc(N)c(C(=O)N[C@H]3CCCNC3)n2)c1` [Example 1031, 3-amino-6-[3-({[(5-fluoro-2-methylphenyl)methyl]amino}carbonyl)phenyl]-N-[(3S)-piperidin-3-yl]pyrazine-2-carboxamide], the half-inhibitory concentration (IC50) is under 50 nM.

`Nc1ncc(-c2cccc(NC(=O)Cc3cc(F)ccc3F)c2)nc1C(=O)N[C@H]1CCCNC1` [Example 982, 3-amino-6-(3-{[(2,5-difluorophenyl)acetyl]amino}phenyl)-N-[(3S)-piperidin-3-yl]pyrazine-2-carboxamide]: the half-maximal inhibitory concentration (IC50) was under 50 nM.

In the case of `Nc1ncc(-c2cccc(CNC(=O)c3ccc(Cl)cc3)c2)nc1-c1nc([C@H]2CCCNC2)n[nH]1` [Example 941, N-{[3-(5-amino-6-{3-[(3S)-piperidin-3-yl]-1H-1,2,4-triazol-5-yl}pyrazin-2-yl)phenyl]methyl}-4-chlorobenzamide], the IC50 is under 50 nM.

Take `Nc1ncc(-c2cccc(NC(=O)c3ccc(-c4cc(C(F)(F)F)ccc4Cl)o3)c2)nc1C(=O)N[C@H]1CCCNC1` [Example 899, 3-amino-6-{3-[({5-[2-chloro-5-(trifluoromethyl)phenyl]furan-2-yl}carbonyl)amino]phenyl}-N-[(3S)-piperidin-3-yl]pyrazine-2-carboxamide]: the IC50 is under 50 nM.

As to `CCN(CC)CCOc1cccc(-c2cnc(N)c(C(=O)N[C@H]3CCCNC3)n2)c1` [Example 959, 3-amino-6-(3-{[2-(diethylamino)ethyl]oxy}phenyl)-N-[(3S)-piperidin-3-yl]pyrazine-2-carboxamide], the half-maximal inhibitory concentration (IC50) was under 50 nM.

For the molecule `Nc1ncc(-c2cccc(C(=O)NCc3ccccc3Cl)c2)nc1-c1nc([C@H]2CCCNC2)n[nH]1` [Example 821, 3-(5-amino-6-{3-[(3S)-piperidin-3-yl]-1H-1,2,4-triazol-5-yl}pyrazin-2-yl)-N-[(2-chlorophenyl)methyl]benzamide], the half-inhibitory concentration (IC50) is under 50 nM.

Still in this test, the particulars now being: Table 11; Chk1 only; read-out: Chk1 IC50.
With `Nc1ncc(-c2cccc(CN[C@H]3CCc4ccccc43)c2)nc1C(=O)NCCCn1ccnc1` [Example 586, 3-amino-6-(3-{[(1S)-2,3-dihydro-1H-inden-1-ylamino]methyl}phenyl)-N-[3-(1H-imidazol-1-yl)propyl]pyrazine-2-carboxamide], the concentration for half-maximal inhibition (IC50) was 50 to 1000 nM.

Regarding `Nc1ncc(-c2cccc(CN[C@H]3CCc4ccccc43)c2)nc1C(=O)NCCO` [Example 547, 3-amino-6-(3-{[(1S)-2,3-dihydro-1H-inden-1-ylamino]methyl}phenyl)-N-(2-hydroxyethyl)pyrazine-2-carboxamide], the concentration for half-maximal inhibition (IC50) is 50 to 1000 nM.

Take `Nc1ncc(-c2cccc(C(=O)N[C@H]3CCc4ccccc43)c2)nc1C(=O)N[C@H]1CCN(C(=O)c2ccco2)C1` [Example 646, 3-amino-6-(3-{[(1S)-2,3-dihydro-1H-inden-1-ylamino]carbonyl}phenyl)-N-[(3S)-1-(furan-2-ylcarbonyl)pyrrolidin-3-yl]pyrazine-2-carboxamide]: the IC50 was 1000 to 10000 nM.

For the molecule `CNC(=O)c1nc(-c2cccc(C(=O)NNc3cc(F)ccc3F)c2)cnc1N` [Example 430, 3-amino-6-(3-{[2-(2,5-difluorophenyl)hydrazino]carbonyl}phenyl)-N-methylpyrazine-2-carboxamide], the half-maximal inhibitory concentration (IC50) was 50 to 1000 nM.

As for `CNC(=O)c1nc(-c2cccc(CN[C@H]3CCC[C@@H]3OCc3ccccc3)c2)cnc1N` [Example 499, 3-amino-N-methyl-6-{3-[({(1S,2S)-2-[(phenylmethyl)oxy]cyclopentyl}amino)methyl]phenyl}pyrazine-2-carboxamide], the half-maximal inhibitory concentration (IC50) is 50 to 1000 nM.

For `Cc1nnc(-c2nc(-c3cccc(CO)c3)cnc2N)[nH]1` [Example 550, {3-[5-amino-6-(5-methyl-4H-1,2,4-triazol-3-yl)pyrazin-2-yl]phenyl}methanol], the half-inhibitory concentration (IC50) is 1000 to 10000 nM.

Consider `CN1CCN(NC(=N)c2nc(-c3cccc(C(=O)NCc4ccccc4)c3)cnc2N)CC1` [Example 621, 3-(5-amino-6-{imino[(4-methylpiperazin-1-yl)amino]methyl}pyrazin-2-yl)-N-(phenylmethyl)benzamide], for which the 50% inhibitory concentration (IC50) was at least 10000 nM.

For `Nc1ncc(-c2cccc(C(=O)NCc3ccccc3)c2)nc1C(=O)NCCNS(=O)(=O)c1ccccn1` [Example 665, 3-amino-6-(3-{[(phenylmethyl)amino]carbonyl}phenyl)-N-{2-[(pyridin-2-ylsulfonyl)amino]ethyl}pyrazine-2-carboxamide], the IC50 was at least 10000 nM.

`Nc1ncc(-c2cccc(CO)c2)nc1-c1nc([C@H]2CCCNC2)n[nH]1` [Example 725, [3-(5-amino-6-{3[(3S)-piperidin-3-yl]-1H-1,2,4-triazol-5-yl}pyrazin-2-yl)phenyl]methanol]: the IC50 was in the range of 50 to 1000 nM.

With `C/C(=N\Nc1ccc(C#N)cc1)c1nc(-c2cccc(C(=O)NCc3ccccc3)c2)cnc1N` [Example 631, 3-{5-amino-6-[(1E)-N-(4-cyanophenyl)ethanehydrazonoyl]pyrazin-2-yl}-N-(phenylmethyl)benzamide], the IC50 is at least 10000 nM.

On to `CNC(=O)c1nc(-c2cccc(CNC(CN3CCCC3)c3ccccc3)c2)cnc1N` (stereo not shown) [Example 518, 3-amino-N-methyl-6-(3-{[(1-phenyl-2-pyrrolidin-1-ylethyl)amino]methyl}phenyl)pyrazine-2-carboxamide], for which the 50% inhibitory concentration (IC50) was in the range of 50 to 1000 nM.

`C/C(=N\Nc1ccc(C(F)(F)F)cc1)c1nc(-c2cccc(C(=O)NCc3ccccc3)c2)cnc1N` [Example 640, 3-(5-amino-6-{(1E)-N-[4-(trifluoromethyl)phenyl]ethanehydrazonoyl}pyrazin-2-yl)-N-(phenylmethyl)benzamide]: the IC50 is at least 10000 nM.

As to `CNC(=O)c1nc(-c2cccc(CNC3CCc4cc(F)cc(F)c43)c2)cnc1N` (stereo not shown) [Example 479, 3-amino-6-(3-{[(5,7-difluoro-2,3-dihydro-1H-inden-1-yl)amino]methyl}phenyl)-N-methylpyrazine-2-carboxamide], the half-maximal inhibitory concentration (IC50) fell in the range of 50 to 1000 nM.

Regarding `CNC(=O)c1cc(-c2cccc(CNC3CCc4c(F)cc(F)cc43)c2)cnc1N` (stereo not shown) [Example 520, 2-amino-5-(3-{[(4,6-difluoro-2,3-dihydro-1H-inden-1-yl)amino]methyl}phenyl)-N-methylpyridine-3-carboxamide], the IC50 is 50 to 1000 nM.

The same test, now with this note: read-out: Chk1 IC50.
Take `CNC(=O)c1nc(-c2cccc(NC(=O)O[C@@H]3C[C@H](C)CC[C@H]3C(C)C)c2)cnc1N` [Example 322, (1R,2S,5R)-5-methyl-2-(1-methylethyl)cyclohexyl (3-{5-amino-6-[(methylamino)carbonyl]pyrazin-2-yl}phenyl)carbamate]: the IC50 is at least 10000 nM.

Take `CNC(=O)c1nc(-c2cccc(C(=O)NCc3ccc4c(c3)NCCO4)c2)cnc1N` [Example 380, 3-amino-6-(3-{[(3,4-dihydro-2H-1,4-benzoxazin-6-ylmethyl)amino]carbonyl}phenyl)-N-methylpyrazine-2-carboxamide]: the IC50 lay within 50 to 1000 nM.

Take `CNC(=O)c1nc(-c2cccc(C(=O)NCc3cccc(C)c3)c2)cnc1N` [Example 259, 3-amino-N-methyl-6-[3-({[(3-methylphenyl)methyl]amino}carbonyl)phenyl]pyrazine-2-carboxamide]: the half-inhibitory concentration (IC50) lay in the range of 50 to 1000 nM.

`CNC(=O)c1nc(-c2cccc(C(=O)NCc3ccc(O)c(OC)c3)c2)cnc1N` [Example 244, 3-amino-6-{3-[({[4-hydroxy-3-(methyloxy)phenyl]methyl}amino)carbonyl]phenyl}-N-methylpyrazine-2-carboxamide]: the IC50 fell in the range of 50 to 1000 nM.

Take `CNC(=O)c1nc(-c2noc(CCc3ccccc3)n2)cnc1N` [Example 72, 3-amino-N-methyl-6-[5-(2-phenylethyl)-1,2,4-oxadiazol-3-yl]pyrazine-2-carboxamide]: the IC50 is at least 10000 nM.

In the case of `CNC(=O)c1nc(-c2cccc(C(=O)NCC(C)C)c2)cnc1N` [Example 217, 3-amino-N-methyl-6-(3-{[(2-methylpropyl)amino]carbonyl}phenyl)pyrazine-2-carboxamide], the half-maximal inhibitory concentration (IC50) is 1000 to 10000 nM.

Turning to `CNC(=O)c1nc(-c2cccc(CNCc3ccc4c(c3)NCCO4)c2)cnc1N` [Example 386, 3-amino-6-(3-{[(3,4-dihydro-2H-1,4-benzoxazin-6-ylmethyl)amino]methyl}phenyl)-N-methylpyrazine-2-carboxamide], the IC50 is 50 to 1000 nM.

With `CNC(=O)c1nc(-c2cccc(NC(=O)c3cccc(Oc4ccccc4)c3)c2)cnc1N` [Example 156, 3-amino-N-methyl-6-[3-({[3-(phenyloxy)phenyl]carbonyl}amino)phenyl]pyrazine-2-carboxamide], the concentration for half-maximal inhibition (IC50) was 50 to 1000 nM.

Regarding `CNC(=O)c1nc(-c2cccc(C(=O)NCC3CCCCC3)c2)cnc1N` [Example 126, 3-amino-6-(3-{[(cyclohexylmethyl)amino]carbonyl}phenyl)-N-methylpyrazine-2-carboxamide], the IC50 was in the range of 50 to 1000 nM.

As for `CNC(=O)c1nc(-c2cc(C)cc(C)c2)cnc1N` [Example 78, 3-amino-6-(3,5-dimethylphenyl)-N-methylpyrazine-2-carboxamide], the half-maximal inhibitory concentration (IC50) is 1000 to 10000 nM.
